# Results taken from patent US11045480B2, “Anti-huLRRC15 antibody drug conjugates and methods for their use” (AbbVie Inc., priority 2015, dated 2021).
# T1: huLRRC15 (Homo sapiens, UniProt Q8TF66)
# T1 construct: endogenous in cells; host or cells: U118MG glioblastoma cells
# T1 sequence (Q8TF66 22-581): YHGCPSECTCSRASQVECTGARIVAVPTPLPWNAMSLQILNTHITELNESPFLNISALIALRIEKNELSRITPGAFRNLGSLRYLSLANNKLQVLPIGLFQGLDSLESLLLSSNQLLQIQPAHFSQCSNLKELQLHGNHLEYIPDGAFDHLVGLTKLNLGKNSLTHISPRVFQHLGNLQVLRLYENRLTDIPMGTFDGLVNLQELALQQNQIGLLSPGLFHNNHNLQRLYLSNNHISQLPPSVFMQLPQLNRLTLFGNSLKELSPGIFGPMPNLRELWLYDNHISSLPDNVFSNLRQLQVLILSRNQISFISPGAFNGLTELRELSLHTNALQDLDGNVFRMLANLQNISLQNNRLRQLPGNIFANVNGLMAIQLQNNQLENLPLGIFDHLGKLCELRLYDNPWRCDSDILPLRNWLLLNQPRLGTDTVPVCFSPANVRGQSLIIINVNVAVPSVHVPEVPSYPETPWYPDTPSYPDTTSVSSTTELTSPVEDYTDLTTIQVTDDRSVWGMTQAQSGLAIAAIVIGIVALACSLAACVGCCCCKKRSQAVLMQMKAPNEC
# What was measured:
# [1] = system: EBC-1 (human squamous NSCLC) xenograft; test: EBC-1 xenograft tumor growth; assay type: in vivo, mouse
# Protocol: For the experiments, five million cells (EBC-1) that were grown in vitro were inoculated subcutaneously per mouse into the right flank of female SCID-Beige mice. Tumors were size matched at ˜200 mm^3, and dosed intraperitoneally (IP) Q4D×6 (1 dose given every 4 days for a total of 6 doses) as shown in FIG. 13A. Measurements of the length (L) and width (W) of the tumors were taken via electronic caliper and the volume was calculated according to the following equation: V=L×W^2/2.
# For this experiment, tumors were size matched at ˜200 mm^3, and dosed intraperitoneally (IP) Q7D×2 (1 dose given every 7 days for a total of 2 doses) as shown in FIG. 13C. […]
# 5 million cells were implanted subcutaneously into SCID/Beige mice, and mice were randomized when tumor group mean volumes reached ˜200 mm^3.
# In FIG. 20C, EBC1 cells (5 million) were implanted subcutaneously into SCID/Beige mice and mice were randomized when the tumors reached ˜200 mm^3 and dosed with biologics at 6 mg/kg intraperitoneally on a Q7D×2 (one dose given every 7 days for a total of 2 doses), while erlotinib was dosed orally daily for 10 days at 50 mg/kg, and carboplatin was dosed intraperitoneally Q4D×3 (one dose given every 4 days for a total of 3 doses) at 50 mg/kg.
# In FIG. 21B, EBC-1 squamous NSCLC cells (5 million) were implanted subcutaneously into SCID/Beige mice, and mice were randomized when the tumors reached ˜200 mm^3 and dosed with biologics at 6 mg/kg intraperitoneally on a Q7D×2 (one dose given every 7 days for a total of 2 doses), while gemcitabine was dosed intraperitoneally at 100 mg/kg (Q3D×3) (one dose given every three days for 3 doses total).
# [2] = system: HPAF-II (human pancreatic) xenograft; test: HPAF-II xenograft tumor growth; assay type: in vivo, mouse; settings: SCID mice, biologics 6 mg/kg IP Q4D×6, gemcitabine 100 mg/kg IP (Q3D×4)×2 (FIG. 21A)
# Protocol: For the experiment, 1 million cells (HPAF-II) that were grown in vitro were inoculated subcutaneously per mouse into the right flank of female SCID-Beige mice. Tumors were size matched at ˜200 mm^3, and dosed intraperitoneally (IP) Q4D×6 (1 dose given every 4 days for a total of 6 doses) as shown in FIG. 13B.
# In FIG. 21A, HPAF-II pancreatic cancer cells (1 million) were implanted subcutaneously into SCID mice, and mice were randomized when the tumors reached ˜200 mm^3 and dosed with biologics at 6 mg/kg intraperitoneally on a Q4D×6 (one dose given every 4 days for a total of 6 doses), while gemcitabine was dosed intraperitoneally at 100 mg/kg (Q3D×4)×2 (one dose given every three days for 4 doses per cycle, 2 cycles with 8 total doses given).
# [3] = system: PANC1 (pancreatic) xenograft; test: PANC1 xenograft tumor growth; assay type: in vivo, mouse; settings: PANC1, SCID mice; biologics 12 mg/kg IP Q4D×6; gemcitabine 100 mg/kg IP Q3D×4 (FIG. 20E)
# Protocol: In FIG. 20E, PANC1 pancreatic cancer cells (10 million) were implanted subcutaneously into SCID mice, and mice were randomized when the tumors reached ˜125 mm^3 and dosed with biologics at 12 mg/kg intraperitoneally on a Q4D×6 (one dose given every 4 days for a total of 6 doses), while gemcitabine was dosed intraperitoneally at 100 mg/kg Q3D×4) (one dose given every three days for 4 doses total).
# [4] = system: NW231 breast cancer xenograft; test: NW231 xenograft tumor growth; assay type: in vivo, mouse; settings: NW231, SCID mice; biologics 12 mg/kg IP Q4D×6; doxorubicin 1 mg/kg IV days 0, 4, 8, 13, 18 (FIG. 20D)
# Protocol: In FIG. 20D, NW231 breast cancer cells (10 million) were implanted subcutaneously into SCID mice, and mice were randomized when the tumors reached ˜150 mm^3 and dosed with biologics at 12 mg/kg intraperitoneally on a Q4D×6 (one dose given every 4 days for a total of 6 doses), while doxorubicin was dosed intravenously at 1 mg/kg on days 0, 4, 8, 13 and 18.
# [5] = system: NCI-H1650 (NSCLC) xenograft; test: NCI-H1650 xenograft tumor growth; assay type: in vivo, mouse; settings: NCI-H1650, SCID/Beige mice; for TGD, single agent / TGImax, single agent: biologics 6 or 12 mg/kg IP Q4D×6, erlotinib 100 mg/kg orally daily ×10, carboplatin 50 mg/kg IP Q4D×4 (FIG. 20A, 22A)
# Protocol: The potency of anti-huLRRC15 ADCs as compared to current standards of care was assessed in xenograft models with NCI-H1650 ([…]), HN5 (head and neck), EBC-1 (squamous NSCLC), NW231 (breast) and PANC1 (pancreatic) cancer cells. […] For FIG. 20A, NCI-H1650 cells (5 million cells) were implanted subcutaneously into SCID/Beige mice and tumors were randomized when they reached ˜200 mm^3 and dosed with biologics at 6 or 12 mg/kg intraperitoneally on a Q4D×6 (one dose given every 4 days for a total of 6 doses), while erlotinib was dosed orally daily for 10 days at 100 mg/kg, and carboplatin was dosed intraperitoneally Q4D×4 (one dose given every 4 days for a total of 4 doses) at 50 mg/kg.
# NCI-H1650 NSCLC cancer cells (5 million) were implanted subcutaneously into SCID/Beige mice, and mice were randomized when the tumors reached ˜200 mm^3 and dosed with biologics at 6 or 12 mg/kg intraperitoneally on a Q4D×6 (one dose given every 4 days for a total of 6 doses), while erlotinib was dosed orally daily at 100 mg/kg for 10 doses.
# NCI-H1650 NSCLC cancer cells (5 million) were implanted subcutaneously into SCID/Beige mice, and mice were randomized when the tumors reached ˜200 mm^3 and dosed on day 0 with isotype or ADC at 0.1, 0.3, or 0.6 mg/kg intraperitoneally.
# NCI-H1650 adeno NSCLC cells (5 million) were implanted subcutaneously into SCID/Beige mice, and mice were randomized when the tumors reached ˜225 mm^3 and dosed with ADC at 0.6 mg/kg or isotype antibody at 12 mg/kg intraperitoneally once on day 0.
# [6] = system: HN5 (head and neck) xenograft; test: HN5 xenograft tumor growth; assay type: in vivo, mouse; settings: HN5, NSG mice; ADC 4.5 mg/kg IP Q4D×6; erlotinib 150 mg/kg orally daily ×10; cetuximab 3 mg/kg IP Q7D×3 (FIG. 20B)
# [7] = system: EBC-1 (human squamous NSCLC) xenograft; test: EBC-1 xenograft tumor growth; assay type: in vivo, mouse; settings: EBC-1, SCID/Beige mice; huM25-vcMMAE-E2 at 3 mg/kg (method: biologics 6 mg/kg IP Q7D×2); method: gemcitabine 100 mg/kg IP Q3D×3, result sentence names docetaxel (FIG. 21B)
# [8] = system: SCC-15 head and neck cancer xenograft; test: SCC-15 xenograft tumor growth; assay type: in vivo, mouse; settings: SCC-15, SCID mice; biologics 12 mg/kg IP Q7D×6; carboplatin 50 mg/kg IP Q4D×4 (FIG. 21E)
# Protocol: Radiation is a commonly used cytotoxic therapy in oncology. […] SCC-15 head and neck cancer cells (1 million) were implanted subcutaneously into SCID mice, and mice were randomized when the tumors reached ˜200 mm^3 and dosed with biologics at 12 mg/kg intraperitoneally on a Q4D×6 (one dose given every 4 days for a total of 6 doses), while the radiation was directed at the tumor with a single radiation dose of 15 Gy on day 0.
# SCC-15 head and neck cancer cells (1 million) were implanted subcutaneously into SCID mice, and mice were randomized when the tumors reached ˜200 mm^3 and dosed with biologics at 12 mg/kg intraperitoneally on a Q7D×6 (one dose given every 7 days for a total of 6 doses), while carboplatin was dosed intraperitoneally […] at 50 mg/kg Q4D×4 (one dose given every 4 days for a total of 4 doses).
# huLRRC15 = molecular target: T1, huLRRC15; test: Flow cytometry competition assay against labeled muM25 (muM25-AF488) on U118MG cells; assay type: binding; settings: 1 μg/mL muM25-AF488, unlabeled test antibody 0.0001-100 μg/mL
# Description: Isotype control antibodies (human or mouse) were used as negative controls, and unlabeled muM25 was used as a positive control.
# In this assay, competition due to a test antibody binding to the same or a proximal epitope as the labeled reference antibody reduce binding of the reference labeled antibody.
# human BM-MSC (Lonza) = test: In vitro cell killing of human mesenchymal stem cells with TGFβ; assay type: cell-based; settings: human BM-MSC (Lonza) treated with 10 ng/mL TGFβ (FIG. 23B)
# [9] = EBC-1, SCID/Beige mice, biologics 3 or 6 mg/kg IP Q4D×6, method: docetaxel 7.5 mg/kg IV, result sentence names gemcitabine (FIG. 21C)
# [10] = EBC1, SCID/Beige mice, biologics 6 mg/kg IP Q7D×2, erlotinib 50 mg/kg orally daily ×10, carboplatin 50 mg/kg IP Q4D×3 (FIG. 20C)
# [11] = EBC-1, SCID mice, 0.6 mg/kg Q7D×2 (FIG. 24H)
# [12] = 0.6 mg/kg IP once on day 0 (FIG. 24G)
molecule,measurement,setting,value
"Nc1ccn([C@@H]2O[C@H](CO)[C@@H](O)C2(F)F)c(=O)n1 [gemcitabine, reference compound]","TGD, single agent",[1]; [9],171%
same,"TGImax, single agent",[1]; [9],95%
same,"TGD, single agent",[2],117%
same,"TGImax, single agent",[2],73%
same,TGImax,[3],55%
"COc1cccc2c1C(=O)c1c(O)c3c(c(O)c1C2=O)C[C@@](O)(C(=O)CO)C[C@@H]3O[C@H]1C[C@H](N)[C@H](O)[C@H](C)O1 [doxorubicin, reference compound]",TGImax,[4],65%
"C#Cc1cccc(Nc2ncnc3cc(OCCOC)c(OCCOC)cc23)c1 [erlotinib, reference compound]",TGD,[1]; [10],14%
same,TGImax,[1]; [10],27%
same,"TGD, single agent",[5],77%
same,"TGImax, single agent",[5],90%
same,TGD,[6],12%
same,TGImax,[6],23%
"CC(=O)O[C@@]12CO[C@@H]1C[C@H](O)[C@@]1(C)C(=O)[C@H](O)C3=C(C)[C@@H](OC(=O)[C@H](O)[C@@H](NC(=O)OC(C)(C)C)c4ccccc4)C[C@@](O)([C@@H](OC(=O)c4ccccc4)[C@H]21)C3(C)C [docetaxel, reference compound]","TGD, single agent","[1]; EBC-1, SCID/Beige mice, huM25-vcMMAE-E2 at 3 mg/kg (method: biologics 6 mg/kg IP Q7D×2), method: gemcitabine 100 mg/kg IP Q3D×3, result sentence names docetaxel (FIG. 21B)",48%
same,"TGImax, single agent",[7],77%
"N.N.O=C([O-])C1(C(=O)[O-])CCC1.[Pt+2] [carboplatin, reference compound]",TGD,[1]; [10],43%
same,TGImax,[1]; [10],39%
same,"TGD, single agent",[5],77%
same,"TGImax, single agent",[5],56%
same,"TGD, single agent",[8],33%
same,"TGImax, single agent",[8],56%
"muAD209.9.1: murine anti-huLRRC15 antibody; VH SEQ ID NO:76, VL SEQ ID NO:77 (antibody, V domains shown) VH: QIQLVQSGPELKKPGETVKISCKASGFAITNFGMNWVKQAPGKGLKWMGWINLYTGEPTFADDFKGRFAFSLETSASTAYLQINNLKNEDTVIYFCARKGETYYRYDGFAYWGQGTLVTVSA VL: DIVMTQAAPSVPVTPGESVSISCRSSKSLLHSNGNTHLYWFLQRPGQSPQLLIYRMSNLASGVPDRFSGSGSGTAFTLRISRVEAEDVGVYYCMQLLEYPYTFGGGTKLEIE",competition with labeled muM25 for binding cells expressing huLRRC15,huLRRC15,do not inhibit
huAD208.4.1-PBD-DAR2: PBD synthon vaPBD conjugated with anti-huLRRC15 antibody huAD208.4.1 to yield a DAR of 2 (conjugate) VH: EVQLVQSGAEVKKPGSSVKVSCKASGFTFTDYYIHWVKQAPGQGLEWIGLVYPYIGGTNYNQKFKGKATLTVDTSTTTAYMEMSSLRSEDTAVYYCARGDNKYDAMDYWGQGTTVTVSS VL: DIVLTQSPDSLAVSLGERATINCRASQSVSTSSYSYMHWYQQKPGQPPKLLIKYASSLESGVPDRFSGSGSGTDFTLTISSLQAEDVAVYYCEQSWEIRTFGGGTKVEIK,TGD,[1]; [11],> 600%
same,TGImax,[1]; [11],91%
same,TGD,[5]; [12],> 388%
same,TGImax,[5]; [12],95%
same,cell killing effect relative to isotype-PBD-DAR2 at the same doses,human BM-MSC (Lonza),higher cell killing effect
